pIC50: −log10 of the molar value.
Molecular target: T1, FL hMALT1 enzyme (Homo sapiens, UniProt Q9UDY8)
T1 sequence (Q9UDY8 1-824): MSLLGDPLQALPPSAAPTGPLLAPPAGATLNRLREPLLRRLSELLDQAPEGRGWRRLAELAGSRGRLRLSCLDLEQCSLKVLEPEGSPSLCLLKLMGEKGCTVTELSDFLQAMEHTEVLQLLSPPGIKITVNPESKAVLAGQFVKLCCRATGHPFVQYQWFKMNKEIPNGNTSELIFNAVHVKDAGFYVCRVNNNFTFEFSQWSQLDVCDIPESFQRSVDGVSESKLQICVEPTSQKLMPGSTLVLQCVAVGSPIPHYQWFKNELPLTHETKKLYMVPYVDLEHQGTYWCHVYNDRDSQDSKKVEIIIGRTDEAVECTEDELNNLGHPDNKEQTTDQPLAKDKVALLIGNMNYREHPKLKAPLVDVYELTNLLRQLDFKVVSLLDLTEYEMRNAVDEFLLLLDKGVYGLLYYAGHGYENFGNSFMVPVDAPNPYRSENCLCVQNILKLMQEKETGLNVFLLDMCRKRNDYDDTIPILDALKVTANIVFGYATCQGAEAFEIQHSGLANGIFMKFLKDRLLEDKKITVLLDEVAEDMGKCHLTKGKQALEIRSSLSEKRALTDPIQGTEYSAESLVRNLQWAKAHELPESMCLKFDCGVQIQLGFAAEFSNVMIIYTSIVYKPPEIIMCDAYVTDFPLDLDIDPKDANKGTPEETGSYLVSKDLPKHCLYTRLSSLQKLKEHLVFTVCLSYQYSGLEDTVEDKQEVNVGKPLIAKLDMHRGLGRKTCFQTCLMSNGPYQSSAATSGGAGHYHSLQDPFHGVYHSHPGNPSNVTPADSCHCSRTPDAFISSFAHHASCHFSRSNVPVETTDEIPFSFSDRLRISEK
Experiment: biochemical
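Also: Cell-free protease assay: enzyme preincubated with compound 30 min at room temperature, then cleavage of fluorogenic Ac-LVSR-AMC substrate (100 µM) tracked by fluorescence (ex 360/em 460 nm).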

SMILES	pIC50
CN(C(=O)C1CC2(CCC(=O)N2)C1)[C@@H](c1ccc(NC2Cc3ccc(Cl)c(Cl)c3C2)cn1)C(F)(F)F (single isomer, unassigned) [Example 342]	5.88
CN(C(=O)C1CCS(=O)(=O)CC1)[C@@H](c1ccc(NC2Cc3ccc(Cl)c(Cl)c3C2)nc1)C(F)(F)F (single isomer, unassigned) [Example 344]	6.51
CN(C(=O)C1CCS(=O)(=O)CC1)[C@@H](c1ccc(NC2Cc3ccc(Cl)c(Cl)c3C2)nc1)C(F)(F)F (single isomer, unassigned) [Example 345]	8.15
CN(C(=O)[C@H]1CNC(=O)C1)[C@@H](c1ccc(NC2Cc3ccc(Cl)c(Cl)c3C2)nc1)C(F)(F)F (single isomer, unassigned) [Example 346]	5.96
Cc1ncc(C(=O)N(C)[C@@H](c2ccc(NC3Cc4ccc(Cl)c(F)c4C3)cn2)C(F)(F)F)cn1 (single isomer, unassigned) [Example 348]	6.39
CN(C(=O)CC#N)[C@@H](c1ccc(NC2Cc3ccc(Cl)c(Cl)c3C2)cn1)C(F)(F)F (single isomer, unassigned) [Example 349]	5.98
CN(C(=O)C1CN(C(=O)C2CCOC2)C1)[C@@H](c1ccc(NC2Cc3ccc(Cl)c(Cl)c3C2)cn1)C(F)(F)F (single isomer, unassigned) [Example 351]	6.23
CN(C(=O)C1CN(C(=O)C2CCOC2)C1)[C@@H](c1ccc(NC2Cc3ccc(Cl)c(Cl)c3C2)cn1)C(F)(F)F (single isomer, unassigned) [Example 354]	6.00
CN(C(=O)C1CCS(=O)(=O)C1)[C@@H](c1ccc(NC2Cc3ccc(Cl)c(Cl)c3C2)cn1)C(F)(F)F (single isomer, unassigned) [Example 357]	6.16
CN(C(=O)C1CCS(=O)(=O)C1)[C@@H](c1ccc(NC2Cc3ccc(Cl)c(Cl)c3C2)cn1)C(F)(F)F (single isomer, unassigned) [Example 359]	6.32
CN(C(=O)CN1CCCS1(=O)=O)[C@@H](c1ccc(NC2Cc3ccc(Cl)c(F)c3C2)cn1)C(F)(F)F (single isomer, unassigned) [Example 361]	5.14
CN(C(=O)CN1CCCS1(=O)=O)[C@@H](c1ccc(NC2Cc3ccc(Cl)c(F)c3C2)cn1)C(F)(F)F (single isomer, unassigned) [Example 362]	6.55
Cc1nnc(N2CC(C(=O)N(C)[C@@H](c3ccc(NC4Cc5ccc(Cl)c(F)c5C4)cn3)C(F)(F)F)C2)o1 (single isomer, unassigned) [Example 364]	6.92
Cc1nnc(N2CC(C(=O)N(C)[C@@H](c3ccc(NC4Cc5ccc(Cl)c(F)c5C4)cn3)C(F)(F)F)C2)o1 (single isomer, unassigned) [Example 365]	5.44
CN(C(=O)CO)[C@@H](c1ccc(NC2Cc3ccc(Cl)c(F)c3C2)cn1)C(F)(F)F (single isomer, unassigned) [Example 366]	5.44
CN(C(=O)CO)[C@@H](c1ccc(NC2Cc3ccc(Cl)c(F)c3C2)cn1)C(F)(F)F (single isomer, unassigned) [Example 367]	6.51
CN(C(=O)C1CN(C(=O)C2COC2)C1)[C@@H](c1ccc(NC2Cc3ccc(Cl)c(F)c3C2)cn1)C(F)(F)F (single isomer, unassigned) [Example 370]	5.86
Cc1c(Cl)ccc2c1CC(Nc1ccc([C@H](N(C)C(=O)C3CCS(=O)(=O)CC3)C(F)(F)F)nc1)C2 (single isomer, unassigned) [Example 373]	6.31
CN(C(=O)[C@H]1C[C@H](O)C1)[C@@H](c1ccc(NC2Cc3ccc(Cl)c(F)c3C2)cn1)C(F)(F)F (single isomer, unassigned) [Example 375]	5.88

SMILES	pIC50
CC(=O)N1CC(C(=O)N(C)[C@@H](c2ccc(NC3Cc4ccc(Cl)c(Cl)c4C3)cn2)C(F)(F)F)C1 (single isomer, unassigned) [Example 376]	5.92
CN(C(=O)C1CN(C(=O)CO)C1)[C@@H](c1ccc(NC2Cc3ccc(Cl)c(Cl)c3C2)cn1)C(F)(F)F (single isomer, unassigned) [Example 378]	5.89
CN(C(=O)C1CN(C(=O)CO)C1)[C@@H](c1ccc(NC2Cc3ccc(Cl)c(Cl)c3C2)cn1)C(F)(F)F (single isomer, unassigned) [Example 379]	7.34
CN(C(=O)CNS(C)(=O)=O)[C@@H](c1ccc(NC2Cc3ccc(Cl)c(Cl)c3C2)cn1)C(F)(F)F (single isomer, unassigned) [Example 380]	5.73
CN(C(=O)CNS(C)(=O)=O)[C@@H](c1ccc(NC2Cc3ccc(Cl)c(Cl)c3C2)cn1)C(F)(F)F (single isomer, unassigned) [Example 381]	7.11
CN(C(=O)[C@H]1C[C@@H](O)C1)[C@@H](c1ccc(NC2Cc3ccc(Cl)c(F)c3C2)cn1)C(F)(F)F (single isomer, unassigned) [Example 382]	7.02
CN(C(=O)[C@H]1C[C@@H](O)C1)[C@@H](c1ccc(NC2Cc3ccc(Cl)c(F)c3C2)cn1)C(F)(F)F (single isomer, unassigned) [Example 383]	5.80
CN(C(=O)C1CN(C(=O)C2CCO2)C1)[C@@H](c1ccc(NC2Cc3ccc(Cl)c(F)c3C2)cn1)C(F)(F)F (single isomer, unassigned) [Example 385]	6.89
CN(C(=O)C1CN(C(=O)C2CCO2)C1)[C@@H](c1ccc(NC2Cc3ccc(Cl)c(F)c3C2)cn1)C(F)(F)F (single isomer, unassigned) [Example 386]	5.57
CN(C(=O)C1CN(C(=O)C2CCO2)C1)[C@@H](c1ccc(NC2Cc3ccc(Cl)c(F)c3C2)cn1)C(F)(F)F (single isomer, unassigned) [Example 387]	6.51
CN(C(=O)[C@H]1CCC(=O)NC1)[C@@H](c1ccc(NC2Cc3ccc(Cl)c(F)c3C2)nc1)C(F)(F)F (single isomer, unassigned) [Example 388]	6.31
CN(C(=O)[C@H]1CCC(=O)NC1)[C@@H](c1ccc(NC2Cc3ccc(Cl)c(F)c3C2)nc1)C(F)(F)F (single isomer, unassigned) [Example 389]	7.40
CC(=O)N1CCC[C@@H]1C(=O)N(C)[C@@H](c1ccc(N[C@H]2Cc3ccccc3C2(C)C)cn1)C(F)(F)F [Example 171, (R)-1-Acetyl-N—((S)-1-(5-(((S)-1,1-dimethyl-2,3-dihydro-1H-inden-2-yl)amino)pyridin-2-yl)-2,2,2-trifluoroethyl)-N-methylpyrrolidine-2-carboxamide]	6.68
CN(C(=O)C1CC2(CNC2)C1)[C@@H](c1ccc(N[C@H]2Cc3ccccc3C2(C)C)cn1)C(F)(F)F [Example 173, N—((S)-1-(5-(((S)-1,1-Dimethyl-2,3-dihydro-1H-inden-2-yl)amino)pyridin-2-yl)-2,2,2-trifluoroethyl)-N-methyl-2-azaspiro[3.3]heptane-6-carboxamide]	6.89
CN(C(=O)[C@@H]1CC[C@H](NC(=O)C(F)(F)F)C1)[C@@H](c1ccc(N[C@H]2Cc3ccccc3C2(C)C)cn1)C(F)(F)F [Example 184, (1R,3S)—N—((S)-1-(5-(((S)-1,1-Dimethyl-2,3-dihydro-1H-inden-2-yl)amino)pyridin-2-yl)-2,2,2-trifluoroethyl)-N-methyl-3-(2,2,2-trifluoroacetamido)cyclopentane-1-carboxamide]	6.82
CNC(=O)C12CC(C(=O)N(C)[C@@H](c3ccc(N[C@@H]4Cc5ccccc5C4(C)C)cn3)C(F)(F)F)(C1)C2 [Example 203, N^1—((S)-1-(5-(((R)-1,1-Dimethyl-2,3-dihydro-1H-inden-2-yl)amino)pyridin-2-yl)-2,2,2-trifluoroethyl)-N^1,N^3-dimethylbicyclo[1.1.1]pentane-1,3-dicarboxamide]	6.92
CC(=O)N[C@H]1CC[C@@H](C(=O)N(C)[C@@H](c2ccc(N[C@@H]3Cc4ccccc4C3(C)C)cn2)C(F)(F)F)C1 [Example 204, (1R,3S)-3-Acetamido-N—((S)-1-(5-(((R)-1,1-dimethyl-2,3-dihydro-1H-inden-2-yl)amino)pyridin-2-yl)-2,2,2-trifluoroethyl)-N-methylcyclopentane-1-carboxamide]	6.66
CN(C(=O)C1CCS(=O)(=O)CC1)[C@@H](c1ccc(NC2Cc3cccc(Br)c3C2)cn1)C(F)(F)F (stereo partly drawn) [Example 237, N-((1S)-1-(5-((4-Bromo-2,3-dihydro-1H-inden-2-yl)amino)pyridin-2-yl)-2,2,2-trifluoroethyl)-N-methyltetrahydro-2H-thiopyran-4-carboxamide 1,1-dioxide]	6.96
CN(C(=O)C1CCS(=O)(=O)CC1)[C@@H](c1ccc(NC2Cc3c(F)ccc(F)c3C2)cn1)C(F)(F)F [Example 273, (S)—N-(1-(5-((4,7-Difluoro-2,3-dihydro-1H-inden-2-yl)amino)pyridin-2-yl)-2,2,2-trifluoroethyl)-N-methyltetrahydro-2H-thiopyran-4-carboxamide 1,1-dioxide]	6.34

Reference: patent publication US20260184687A1, “DIHYDROINDENE DERIVATIVES AS MALT1 INHIBITORS” (C4X Discovery Limited, priority 2022, published 2026)
